ChEMBL document CHEMBL3232855, “The discovery of N-((2H-tetrazol-5-yl)methyl)-4-((R)-1-((5r,8R)-8-(tert-butyl)-3-(3,5-dichlorophenyl)-2-oxo-1,4-diazaspiro[4.5]dec-3-en-1-yl)-4,4-dimethylpentyl)benzamide (SCH 900822): a potent and selective glucagon receptor antagonist” (J Med Chem, 2014)

Key:
[1] = target: Glucagon-like peptide 1 receptor (Homo sapiens, UniProt P43220); test: Antagonist activity at human GLP-1R expressed in CHO cells assessed as inhibition of GLP-1-stimulated cAMP production preincubated for 30 mins followed by GLP-1 induction measured after 45 mins by LANCE assay; format: functional, cell-based
Glucagon receptor [2] = target: T1, Glucagon receptor (Homo sapiens, UniProt P47871); test: biochemical; format: cell-based, CHO
Description: Displacement of [125I]-glucagon from recombinant human GCGR expressed in CHO cells after 60 mins by scintillation counting analysis

Glucagon receptor [3] = target: Glucagon receptor (Mus musculus, UniProt Q61606); format: cell membranes, Liver, Membrane
Description: Displacement of [125I]-glucagon from GCGR in mouse liver membranes after 60 mins by scintillation counting analysis

Glucagon receptor [4] = target: T1, Glucagon receptor; test: Antagonist activity at human GCGR expressed in CHO cells assessed as inhibition of glucagon-stimulated cAMP production preincubated for 30 mins followed by glucagon induction measured after 45 mins by LANCE assay; format: functional, cell-based

Chain of Glucagon receptor (Mus musculus, UniProt Q61606) (Q61606 whole entry): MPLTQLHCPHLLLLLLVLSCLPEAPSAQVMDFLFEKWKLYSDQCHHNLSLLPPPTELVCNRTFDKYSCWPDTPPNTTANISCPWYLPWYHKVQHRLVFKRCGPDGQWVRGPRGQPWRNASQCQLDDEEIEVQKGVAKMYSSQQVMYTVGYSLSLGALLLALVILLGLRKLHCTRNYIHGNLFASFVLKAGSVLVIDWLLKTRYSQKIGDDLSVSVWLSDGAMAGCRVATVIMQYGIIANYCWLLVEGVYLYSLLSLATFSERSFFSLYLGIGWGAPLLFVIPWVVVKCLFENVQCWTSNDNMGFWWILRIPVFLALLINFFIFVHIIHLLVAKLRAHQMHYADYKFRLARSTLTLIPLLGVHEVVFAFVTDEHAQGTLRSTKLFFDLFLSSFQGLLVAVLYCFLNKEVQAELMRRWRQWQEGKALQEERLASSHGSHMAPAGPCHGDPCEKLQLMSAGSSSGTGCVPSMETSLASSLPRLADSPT
Chain of Glucagon-like peptide 1 receptor (P43220 whole entry): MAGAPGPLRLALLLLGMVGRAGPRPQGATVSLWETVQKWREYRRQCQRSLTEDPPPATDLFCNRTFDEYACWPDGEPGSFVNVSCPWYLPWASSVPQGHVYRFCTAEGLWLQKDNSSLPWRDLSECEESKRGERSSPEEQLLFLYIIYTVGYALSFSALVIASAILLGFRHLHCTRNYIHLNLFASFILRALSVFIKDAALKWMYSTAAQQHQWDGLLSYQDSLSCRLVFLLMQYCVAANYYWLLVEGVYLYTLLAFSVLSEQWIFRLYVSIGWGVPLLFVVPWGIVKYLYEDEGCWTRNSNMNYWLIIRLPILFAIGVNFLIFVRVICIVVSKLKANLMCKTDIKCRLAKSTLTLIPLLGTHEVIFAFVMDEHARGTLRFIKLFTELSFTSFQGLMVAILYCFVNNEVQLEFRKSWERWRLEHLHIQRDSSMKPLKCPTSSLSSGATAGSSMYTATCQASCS
T1 sequence (P47871 whole entry): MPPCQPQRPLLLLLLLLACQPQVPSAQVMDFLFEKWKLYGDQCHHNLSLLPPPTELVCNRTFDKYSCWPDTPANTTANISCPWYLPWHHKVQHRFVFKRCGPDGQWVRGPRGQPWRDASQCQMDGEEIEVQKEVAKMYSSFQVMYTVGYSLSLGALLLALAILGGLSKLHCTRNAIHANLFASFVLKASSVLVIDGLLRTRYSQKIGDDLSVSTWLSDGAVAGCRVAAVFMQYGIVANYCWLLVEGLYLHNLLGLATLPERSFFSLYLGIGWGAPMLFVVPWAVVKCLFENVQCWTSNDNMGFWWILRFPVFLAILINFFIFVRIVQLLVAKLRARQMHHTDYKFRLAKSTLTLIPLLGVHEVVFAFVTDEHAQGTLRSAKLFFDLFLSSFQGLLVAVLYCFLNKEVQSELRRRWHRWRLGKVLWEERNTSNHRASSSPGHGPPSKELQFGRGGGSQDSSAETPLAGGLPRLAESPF

Row | Compound | IC50 [1] [nM] | IC50 (Glucagon receptor [2]) [nM] | IC50 (Glucagon receptor [3]) [nM] | IC50 (Glucagon receptor [4]) [nM]
1 | C[C@H](c1ccc(C(=O)NCCC(=O)O)cc1)N1C(=O)C(c2cccc(OC(F)(F)F)c2)=N[C@]12CC[C@@H](C(C)(C)C)CC2 | 2200 | 330 | 1500 | 840
2 | CC(C)(C)[C@H]1CC[C@]2(CC1)N=C(c1cc(Cl)cc(Cl)c1)C(=O)N2[C@H](CCC(F)(F)F)c1ccc(C(=O)NCc2nn[nH]n2)cc1 | > 10000 | 4 | 110 | 370
3 | C[C@H](c1ccc(C(=O)NCCC(=O)O)cc1)N1C(=O)C(c2ccccc2F)=N[C@]12CC[C@@H](C(C)(C)C)CC2 | > 10000 | 1100 | > 10000 | 350
4 | C[C@H](c1ccc(C(=O)NCCC(=O)O)cc1)N1C(=O)C(c2ccccc2Cl)=N[C@]12CC[C@@H](C(C)(C)C)CC2 | > 10000 | 520 | 5400 | 2900
5 | CC(C)(C)[C@H]1CC[C@]2(CC1)N=C(c1cc(Cl)cc(Cl)c1)C(=O)N2[C@@H](c1ccc(C(=O)NCc2nn[nH]n2)cc1)C1CC1 | > 10000 | 72 | 750 | 540
6 | CC(C)(C)CC[C@H](c1ccc(C(=O)NCc2nn[nH]n2)cc1)N1C(=O)C(c2ccc(F)cc2)=N[C@]12CC[C@@H](C(C)(C)C)CC2 | > 10000 | 13 | 90 | 240
7 | CC(Cc1ccc(C(=O)NCCC(=O)O)cc1)N1C(=O)C(c2cc(Cl)cc(Cl)c2)=N[C@]12CC[C@@H](C(C)(C)C)CC2 (stereo partly drawn) | 3100 | 190 | 1300 | 140
8 | CC1(CC[C@H](c2ccc(C(=O)NCc3nn[nH]n3)cc2)N2C(=O)C(c3cc(Cl)cc(Cl)c3)=N[C@]23CC[C@@H](C(C)(C)C)CC3)CC1 | > 10000 | 17 | 110 | 100
9 | C[C@H](c1ccc(C(=O)NCCC(=O)O)cc1)N1C(=O)C(c2cccc(C3CC3)c2)=N[C@]12CC[C@@H](C(C)(C)C)CC2 | > 10000 | 56 | 1700 | 340
10 | C[C@H](c1ccc(C(=O)NCCC(=O)O)cc1)N1C(=O)C(c2cccc(F)c2)=N[C@]12CC[C@@H](C(C)(C)C)CC2 | > 10000 | 490 | 4400 | 560
11 | C[C@H](c1ccc(C(=O)NCCC(=O)O)cc1)N1C(=O)C(c2cc(Cl)cc(Cl)c2)=N[C@]12CC[C@@H](C(C)(C)C)CC2 | 6400 | 96 | 1200 | 140
12 | CC(C)(C)CC[C@H](c1ccc(C(=O)NCc2nn[nH]n2)cc1)N1C(=O)C(c2cccc(F)c2)=N[C@]12CC[C@@H](C(C)(C)C)CC2 | > 10000 | 21 | 100 | 140
13 | CC(C)(C)CC[C@H](c1ccc(C(=O)NCc2nn[nH]n2)cc1)N1C(=O)C(c2cccc(Cl)c2)=N[C@]12CC[C@@H](C(C)(C)C)CC2 | > 10000 | 14 | 130 | 130
14 | CC(C)(C)CC[C@H](c1ccc(C(=O)NCCC(=O)O)cc1)N1C(=O)C(c2cc(Cl)cc(Cl)c2)=N[C@]12CC[C@@H](C(C)(C)C)CC2 | 2000 | 16 | 520 | 48
15 | C[C@H](c1ccc(C(=O)Nc2nnn[nH]2)cc1)N1C(=O)C(c2cc(Cl)cc(Cl)c2)=N[C@]12CC[C@@H](C(C)(C)C)CC2 | 800 | 470 | > 10000 | 750
16 | CC(CN1C(=O)C(c2cc(Cl)cc(Cl)c2)=N[C@]12CC[C@@H](C(C)(C)C)CC2)c1ccc(C(=O)NCCC(=O)O)cc1 (stereo partly drawn) | 7300 | 890 | 3300 | 260
17 | C[C@H](c1ccc(C(=O)NCCC(=O)O)cc1)N1C(=O)C(c2ccccc2)=N[C@]12CC[C@@H](C(C)(C)C)CC2 | > 10000 | 360 | 5300 | 630
